From patent US20080004276A1, “Method for treating non-hodgkin's lymphoma” (priority 2006, published 2008)
“Also recorded” adds a separate entry of the source.

Experiments:
MDA-MB-435S = MDA-MB-435S nude mouse xenograft model; format: in vivo; conditions: 300 mg/kg IP, 5 times per week for 3 weeks, nude mice; FIG. 4
Protocol: FBS was obtained from Sigma-Aldrich Corp. (St. Louis, Mo., USA), and all other reagents were obtained from Invitrogen Corp. (Carlsbad, Calif., USA). Approximately 4-5×10(6) cells that had been cryopreserved in liquid nitrogen were rapidly thawed at 37° C. and transferred to a 175 cm^2 tissue culture flask containing 50 ml of growth media and then incubated at 37° C. in a 5% CO2 incubator. The growth media was replaced every 2-3 days until the flask became 90% confluent, typically in 5-7 days. To passage and expand the cell line, a 90% confluent flask was washed with 10 ml of room temperature phosphate buffered saline (PBS) and the cells were disassociated by adding 5 ml 1× Trypsin-EDTA (Invitrogen) and incubating at 37° C. until the cells detached from the surface of the flask. To inactivate the trypsin, 5 ml of growth media was added and then the contents of the flask were centrifuged to pellet the cells. The supernatant was aspirated and the cell pellet was resuspended in 10 ml of growth media and the cell number determined using a hemocytometer. […]
Six to eight week old, female Crl:CD-1-nuBR (nude) mice were obtained from Charles River Laboratories (Wilmington, Mass., USA). […] Tumor volumes (V) were calculated by caliper measurement of the width (W), length (L) and thickness (T) of tumors using the following formula: V=[…]×(L×W×T). […]

Her2 = experiment: IC50 range for inhibition of Her2 degradation (Table 8); format: cell-based; conditions: Homo sapiens
Protocol: Human high-Her2 breast carcinoma BT474 (HTB-20), SK-BR-3 (HTB-30) and MCF-7 breast carcinoma (HTB-22) from American Type Culture Collection, VA, USA were grown in Dulbecco's modified Eagle's medium with 4 mM L-glutamine and antibiotics (100 IU/ml penicillin and 100 ug/ml streptomycine; GibcoBRL). To obtain exponential cell growth, cells were trypsinized, counted and seeded at a cell density of 0.5×10^6 cells/ml regularly, every 3 days. All experiments were performed on day 1 after cell passage. […]
After treatment with a compound of the invention, cells were washed twice with 1×PBS/1% FBS, and then stained with anti-Her2-FITC (#340553, BD) for 30 min at 4° C. Cells were then washed three times in FACS buffer before the fixation in 0.5 ml 1% paraformadehydrede. Data was acquired on a FACSCalibur system. Isotype-matched controls were used to establish the non-specific staining of samples and to set the fluorescent markers. A total 10,000 events were recorded from each sample. Data were analysed by using CellQuest software (BD Biosciences).

CCc1cc(-c2nnc(S)n2-c2cccc3ccccc23)c(O)cc1O [Compound 49, 3-(2,4-Dihydroxy-5-ethyl-phenyl)-4-(naphthalen-1-yl)-5-mercapto-triazole]
toxicity (effect on body weights) (MDA-MB-435S): not associated with significant toxicity; also recorded: not toxic
IC50 (Her2): < 3000 nM
